The record followed here is patent US6355631B1, “Pharmaceutical compositions containing azetidine derivatives, novel azetidine derivatives and their preparation” (Aventis Pharma S.A., priority 2000, dated 2002).

The melting point is the temperature of the solid-liquid transition.

For the molecule `O=[SH](=O)N(Cc1ccccc1)CC1CN(C(c2ccc(Cl)cc2)c2ccc(Cl)cc2)C1` [Example 23, N-Benzyl-N-{1-[bis(4-chlorophenyl)methyl]azetidin-3-yl}methylsulfonamide], the melting point was determined as 171 °C.

`O=[SH](=O)N(Cc1cc(F)cc(F)c1)C1CN(C(c2ccc(F)cc2)c2ccc(F)cc2)C1` [Example 34, N-{1-[Bis(4-fluorophenyl)methyl]azetidin-3-yl}-N-(3,5-difluorophenyl)methylsulfonamide]: the melting point was 98 °C.
